Series [1] can be described thus: Unbound fraction in human plasma. It counts as ADME, cell-free.
Series [2] can be described thus: Plasma clearance in rat at 0.2 mg/kg, iv. Format: ADME, organism-based.
Series [3] deals with Cytochrome P450 3A4 (Homo sapiens, UniProt P08684). The series can be described thus: Inhibition of CYP3A4 (unknown origin). Format: ADME.
The target in series [4] is T1, Cytochrome P450 1A2 (Homo sapiens, UniProt P05177).
T1 sequence (P05177 whole entry): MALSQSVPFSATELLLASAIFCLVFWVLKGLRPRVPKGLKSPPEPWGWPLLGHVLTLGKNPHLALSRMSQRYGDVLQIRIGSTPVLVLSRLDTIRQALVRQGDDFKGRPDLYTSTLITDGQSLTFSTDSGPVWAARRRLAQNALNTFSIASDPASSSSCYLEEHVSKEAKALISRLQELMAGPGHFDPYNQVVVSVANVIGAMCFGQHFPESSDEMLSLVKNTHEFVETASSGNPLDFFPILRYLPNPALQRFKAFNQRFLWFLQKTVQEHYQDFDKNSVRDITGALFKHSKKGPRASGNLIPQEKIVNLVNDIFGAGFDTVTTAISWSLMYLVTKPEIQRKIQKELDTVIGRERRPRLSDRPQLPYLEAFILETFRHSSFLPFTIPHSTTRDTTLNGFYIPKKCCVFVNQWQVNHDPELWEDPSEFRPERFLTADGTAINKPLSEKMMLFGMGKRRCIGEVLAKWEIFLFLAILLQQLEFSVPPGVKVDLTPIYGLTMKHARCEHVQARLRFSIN
The series can be described thus: Inhibition of CYP1A2 (unknown origin). Format: ADME.

A short description of series [5]: Half life in rat at 0.2 mg/kg, iv. Format: ADME, organism-based. The settings on record: in vivo.
The target in series [6] is T2, Metabotropic glutamate receptor 5 (Homo sapiens, UniProt P41594). The series can be described thus: Negative allosteric modulation of human mGlu5 receptor assessed as inhibition of glutamate induced-calcium mobilization. It counts as functional. A general note: Calcium flux is commonly read through the fluorescence of an indicator in the cells.
Target sequence in this assay (P41594 whole entry): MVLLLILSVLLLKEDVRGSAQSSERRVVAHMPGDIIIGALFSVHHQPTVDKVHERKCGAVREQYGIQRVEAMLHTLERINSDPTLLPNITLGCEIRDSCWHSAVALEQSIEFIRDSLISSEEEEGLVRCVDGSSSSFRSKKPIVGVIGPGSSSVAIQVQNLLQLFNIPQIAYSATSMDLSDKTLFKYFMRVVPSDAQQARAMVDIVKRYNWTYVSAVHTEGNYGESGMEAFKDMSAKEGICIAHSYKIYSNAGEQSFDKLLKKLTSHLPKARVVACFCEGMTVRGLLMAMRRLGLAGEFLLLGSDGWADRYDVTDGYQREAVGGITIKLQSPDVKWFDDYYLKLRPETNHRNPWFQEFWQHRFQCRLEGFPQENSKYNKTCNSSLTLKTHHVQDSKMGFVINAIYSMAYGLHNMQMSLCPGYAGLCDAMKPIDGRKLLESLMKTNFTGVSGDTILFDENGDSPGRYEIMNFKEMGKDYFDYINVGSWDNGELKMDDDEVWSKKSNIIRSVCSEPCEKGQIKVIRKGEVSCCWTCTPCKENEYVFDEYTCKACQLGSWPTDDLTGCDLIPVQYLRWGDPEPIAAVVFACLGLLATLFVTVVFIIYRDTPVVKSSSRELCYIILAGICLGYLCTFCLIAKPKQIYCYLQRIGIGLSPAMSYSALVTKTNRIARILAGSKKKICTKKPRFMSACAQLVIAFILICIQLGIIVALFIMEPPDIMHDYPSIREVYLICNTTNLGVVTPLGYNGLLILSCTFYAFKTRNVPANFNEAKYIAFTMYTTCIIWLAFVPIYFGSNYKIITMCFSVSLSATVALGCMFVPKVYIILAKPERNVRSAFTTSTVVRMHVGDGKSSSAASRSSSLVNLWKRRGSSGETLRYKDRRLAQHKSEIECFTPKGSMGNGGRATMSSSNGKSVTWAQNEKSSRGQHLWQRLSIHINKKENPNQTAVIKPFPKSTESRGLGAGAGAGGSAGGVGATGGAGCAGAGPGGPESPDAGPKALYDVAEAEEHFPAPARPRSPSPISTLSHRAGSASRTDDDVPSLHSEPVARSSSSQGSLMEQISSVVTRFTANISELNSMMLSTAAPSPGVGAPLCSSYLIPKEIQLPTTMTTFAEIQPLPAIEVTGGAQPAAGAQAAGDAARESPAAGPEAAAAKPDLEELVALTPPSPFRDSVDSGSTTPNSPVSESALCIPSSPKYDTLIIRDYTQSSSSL
Series [7] deals with Cytochrome P450 2C9 (Homo sapiens, UniProt P11712). The series can be described thus: Inhibition of CYP2C9 (unknown origin). It counts as ADME.
Cytochrome P450 2C9, sequence (P11712 whole entry): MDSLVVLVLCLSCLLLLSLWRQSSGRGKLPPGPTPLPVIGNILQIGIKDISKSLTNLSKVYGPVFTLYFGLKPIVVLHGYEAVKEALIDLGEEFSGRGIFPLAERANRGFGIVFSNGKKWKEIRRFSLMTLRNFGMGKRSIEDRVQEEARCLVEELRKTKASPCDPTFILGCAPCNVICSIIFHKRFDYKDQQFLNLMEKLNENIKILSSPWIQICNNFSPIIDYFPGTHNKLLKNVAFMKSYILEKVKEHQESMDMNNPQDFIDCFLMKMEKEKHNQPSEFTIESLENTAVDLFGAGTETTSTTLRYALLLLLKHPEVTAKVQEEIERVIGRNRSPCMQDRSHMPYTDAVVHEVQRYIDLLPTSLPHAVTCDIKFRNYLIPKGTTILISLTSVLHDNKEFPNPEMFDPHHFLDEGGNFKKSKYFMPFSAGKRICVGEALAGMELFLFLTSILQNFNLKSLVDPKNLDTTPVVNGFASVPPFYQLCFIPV
The nature of series [8]: Volume of distribution at steady state in rat at 0.2 mg/kg, iv. The settings on record: in vivo, read-out: Vdss. Format: ADME, organism-based.
The nature of series [9]: Unbound fraction in rat plasma. Format: ADME, cell-free.
The target of series [10] is Cytochrome P450 2D6 (Homo sapiens, UniProt P10635). The series can be described thus: Inhibition of CYP2D6 (unknown origin). Format: ADME.
Cytochrome P450 2D6, sequence (P10635 whole entry): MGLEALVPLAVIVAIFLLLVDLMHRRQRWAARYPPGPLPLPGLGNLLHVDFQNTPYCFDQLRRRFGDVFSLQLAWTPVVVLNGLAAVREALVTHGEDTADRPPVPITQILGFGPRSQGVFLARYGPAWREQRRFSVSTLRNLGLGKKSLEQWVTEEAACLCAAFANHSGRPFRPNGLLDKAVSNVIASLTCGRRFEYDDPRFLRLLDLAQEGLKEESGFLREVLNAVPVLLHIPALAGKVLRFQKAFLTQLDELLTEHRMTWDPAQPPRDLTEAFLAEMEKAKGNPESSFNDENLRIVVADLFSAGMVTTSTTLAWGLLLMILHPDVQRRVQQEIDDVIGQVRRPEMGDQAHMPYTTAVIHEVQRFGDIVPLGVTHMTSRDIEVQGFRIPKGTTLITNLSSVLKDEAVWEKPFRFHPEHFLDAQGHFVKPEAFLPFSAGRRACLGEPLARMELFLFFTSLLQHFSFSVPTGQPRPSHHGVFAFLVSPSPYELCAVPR
The target in series [11] is T2, Metabotropic glutamate receptor 5. The series can be described thus: Negative allosteric modulation of human mGlu5 receptor assessed as inhibition of glutamate induced-calcium mobilization relative to glutamate. Format: functional.
Target sequence in this assay (P41594 21-1212 limits assumed): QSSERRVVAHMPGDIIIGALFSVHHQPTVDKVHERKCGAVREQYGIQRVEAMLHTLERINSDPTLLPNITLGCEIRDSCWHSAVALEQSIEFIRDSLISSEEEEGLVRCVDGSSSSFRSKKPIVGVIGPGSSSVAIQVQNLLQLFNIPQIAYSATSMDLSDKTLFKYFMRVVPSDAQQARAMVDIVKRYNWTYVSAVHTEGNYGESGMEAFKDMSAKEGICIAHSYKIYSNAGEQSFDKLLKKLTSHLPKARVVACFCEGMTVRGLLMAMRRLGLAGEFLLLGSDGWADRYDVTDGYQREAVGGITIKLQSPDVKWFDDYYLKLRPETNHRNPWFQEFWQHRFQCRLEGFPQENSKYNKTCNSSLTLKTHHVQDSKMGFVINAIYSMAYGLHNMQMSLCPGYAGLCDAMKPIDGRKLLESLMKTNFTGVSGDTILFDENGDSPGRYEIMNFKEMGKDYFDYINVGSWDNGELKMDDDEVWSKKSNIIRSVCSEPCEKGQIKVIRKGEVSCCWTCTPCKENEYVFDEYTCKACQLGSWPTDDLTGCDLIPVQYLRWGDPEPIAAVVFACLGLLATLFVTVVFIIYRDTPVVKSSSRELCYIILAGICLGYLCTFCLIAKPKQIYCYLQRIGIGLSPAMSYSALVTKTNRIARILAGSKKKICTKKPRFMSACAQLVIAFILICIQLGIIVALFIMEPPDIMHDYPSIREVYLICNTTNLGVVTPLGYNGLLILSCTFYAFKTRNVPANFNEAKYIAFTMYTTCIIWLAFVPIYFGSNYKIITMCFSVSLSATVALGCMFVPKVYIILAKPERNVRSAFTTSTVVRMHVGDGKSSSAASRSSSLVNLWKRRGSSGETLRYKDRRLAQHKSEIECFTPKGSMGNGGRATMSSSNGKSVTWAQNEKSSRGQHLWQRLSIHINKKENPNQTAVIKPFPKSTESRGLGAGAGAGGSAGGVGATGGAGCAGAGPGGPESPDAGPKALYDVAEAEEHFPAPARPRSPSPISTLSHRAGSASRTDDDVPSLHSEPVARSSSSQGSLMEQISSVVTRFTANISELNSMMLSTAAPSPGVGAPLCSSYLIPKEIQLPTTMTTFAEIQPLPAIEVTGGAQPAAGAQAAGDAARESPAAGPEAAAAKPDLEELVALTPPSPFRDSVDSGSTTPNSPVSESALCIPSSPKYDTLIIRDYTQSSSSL
Series [12] can be described thus: Brain to plasma partition coefficient, Kp in rat. Format: ADME, organism-based.
The nature of series [13]: Drug metabolism in rat S9 fraction assessed as NADPH-dependent oxidation of furanyl moiety. It counts as ADME, subcellular.
A short description of series [14]: Drug metabolism in human S9 fraction assessed as NADPH-dependent oxidation of furanyl moiety. It counts as ADME, subcellular.
A short description of series [15]: Drug metabolism in dog S9 fraction assessed as NADPH-dependent oxidation of furanyl moiety. Format: ADME, subcellular, Canis lupus familiaris.

Each structure is given as a SMILES string.

Cytochrome P450 3A4, sequence (P08684 whole entry): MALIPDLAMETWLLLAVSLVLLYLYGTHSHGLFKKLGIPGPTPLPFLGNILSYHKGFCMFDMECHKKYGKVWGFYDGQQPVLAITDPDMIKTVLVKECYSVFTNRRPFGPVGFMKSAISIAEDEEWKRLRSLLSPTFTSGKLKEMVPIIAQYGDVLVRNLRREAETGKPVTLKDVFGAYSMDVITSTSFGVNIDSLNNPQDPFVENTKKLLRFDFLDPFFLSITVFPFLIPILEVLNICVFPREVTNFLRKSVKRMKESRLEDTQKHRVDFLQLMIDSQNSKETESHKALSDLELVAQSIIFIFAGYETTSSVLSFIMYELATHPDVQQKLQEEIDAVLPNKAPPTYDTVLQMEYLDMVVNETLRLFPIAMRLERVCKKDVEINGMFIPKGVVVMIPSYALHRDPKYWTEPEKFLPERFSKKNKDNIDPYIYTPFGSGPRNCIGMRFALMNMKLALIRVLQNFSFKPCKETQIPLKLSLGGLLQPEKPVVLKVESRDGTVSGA

The term clearance denotes the volume of plasma or blood freed of the substance per unit of time. Read a high clearance as efficient removal. One may read the half-life as the time needed for the level to fall by half in the phase considered. A low value points to fast loss. Broadly, the IC50 is the concentration needed to halve the response being measured. For the molecule `Cc1cc(OC2COC2)cc(C(=O)Nc2ccc(F)cn2)n1`, the Fu in series [1] and in series [9] was 0.16 each time. This molecule had a clearance in [2] of 179 mL/min/kg. Besides, the INH was more than 30 µM in series [3], 5.8 µM in series [4], more than 30 µM in [7] and more than 30 µM in series [10]. Also, the half-life in series [5] was determined as 28 min. The IC50 in series [6] amounted to 228 nM. In addition, the Vd in [8] turned out to be 4.5 L/kg. The Efficacy in series [11] was 1.1%.
One may read the fraction unbound as free concentration divided by total concentration. Low values mean extensive binding, high ones weak binding. A word on the Kp: it is tissue or fluid exposure divided by exposure in the circulation. As for `Cc1cc(O[C@H]2CO[C@H](C)C2)cc(C(=O)Nc2nc(C)cs2)n1`, the results for the fraction unbound in series [1] and in series [9] were 0.05 and 0.1, respectively. Also, the Kp in series [12] was determined as 2.2. In series [6], the IC50 came to 81 nM. In addition, the Efficacy in series [11] stood at 1.2%.
As for `Cc1cc(O[C@H]2CO[C@H](C)C2)cc(C(=O)Nc2nc(C(F)F)cs2)n1`, the IC50 in [6] was determined as 902 nM. Further, in series [11], the Efficacy stood at 1.6%.
The like results for `Cc1cc(O[C@H]2CO[C@H](C)C2)cc(C(=O)Nc2nc(CF)cs2)n1` were, in that order, 180 nM and 1.1%.
The like results for `Cc1cc(OC2CCCC2)cc(C(=O)Nc2nc(C)cs2)n1` were, in that order, 149 nM and 1.5%.
The like results for `Cc1cc(OC2CCCCC2)cc(C(=O)Nc2nc(C)cs2)n1` were, in that order, 2100 nM and 1.9%.
Consider `Cc1cc(O[C@H]2CO[C@H](C)C2)cc(C(=O)Nc2nc(C)c(F)s2)n1`, for which the IC50 in series [6] turned out to be 1290 nM. Further, the Efficacy in series [11] turned out to be 3.8%.
The like results for `Cc1cc(O[C@H]2CO[C@@H](C)C2)cc(C(=O)Nc2ccc(F)cn2)n1` were, in that order, 4470 nM and 1.9%.
`Cc1cc(O[C@@H]2CO[C@H](C)C2)cc(C(=O)Nc2ccc(F)cn2)n1`: the IC50 in series [6] came to 389 nM. Further, the Efficacy in series [11] turned out to be 1.4%.
The like results for `COCOc1cc(C)nc(C(=O)Nc2ccccn2)c1` were, in that order, 120 nM and 1.1%.
The like results for `COc1cc(C)nc(C(=O)Nc2ccc(F)cn2)c1` were, in that order, 7200 nM and 5.5%.
The like results for `Cc1cc(OCC2COC2)cc(C(=O)Nc2ccccn2)n1` were, in that order, 392 nM and 0.8%.
With `CO[C@H](C)COc1cc(C)nc(C(=O)Nc2nc(C)cs2)c1`, the Fu was determined as 0.07 in series [1] and 0.09 in series [9]. Besides, the IC50 in series [6] worked out at 145 nM.
On to `Cc1cc(O[C@@H]2CCOC2)cc(C(=O)Nc2ccc(F)cn2)n1`, for which the Fu worked out at 0.07 in [1] and 0.26 in series [9]. Moreover, the clearance in series [2] was found to be 136 mL/min/kg. Further, the INH in series [3], in series [4], in series [7] and in series [10] was more than 30 µM in each case. In series [5], the half-life came out at 46 min. In addition, in [6], the IC50 was determined as 38 nM. The Vd in series [8] came out at 5.5 L/kg. In addition, the Efficacy in [11] was 1.7%.
In the case of `Cc1cc(OC2CCC2)cc(C(=O)Nc2ccccn2)n1`, in [6], the IC50 turned out to be 43 nM. The Efficacy in series [11] worked out at 1.5%.
With `Cc1cc(OCC2COC2)cc(C(=O)Nc2nc(C)cs2)n1`, in [6], the IC50 stood at 134 nM. Further, the Efficacy in series [11] is 1.5%.
The like results for `Cc1cc(O[C@@H]2CO[C@@H](C)C2)cc(C(=O)Nc2ccc(F)cn2)n1` were, in that order, 2040 nM and 2.6%.
The like results for `Cc1cc(O[C@@H]2CCOC2)cc(C(=O)Nc2ccccn2)n1` were, in that order, 23 nM and 1.7%.
The like results for `Cc1cc(O[C@H]2CO[C@H](C)C2)cc(C(=O)Nc2nc(C(F)(F)F)cs2)n1` were, in that order, 5200 nM and 2.7%.
As to `Cc1cc(OCC2COC2)cc(C(=O)Nc2ccc(F)cn2)n1`, the IC50 in series [6] came to 4300 nM. Further, the Efficacy in series [11] is -3.4%.
Turning to `Cc1cc(OCC2CCOC2)cc(C(=O)Nc2ccccn2)n1` (stereo unspecified), in series [6], the IC50 stood at 210 nM. Also, the Efficacy in [11] is 1.1%.
The like results for `Cc1cc(OCC2CCO2)cc(C(=O)Nc2ccccn2)n1` (stereo unspecified) were, in that order, 646 nM and 0.5%.
The like results for `Cc1cc(OCC2CCCO2)cc(C(=O)Nc2ccc(F)cn2)n1` (stereo unspecified) were, in that order, 2330 nM and -0.9%.
The like results for `Cc1cc(OCC2CCO2)cc(C(=O)Nc2ccc(F)cn2)n1` (stereo unspecified) were, in that order, 2480 nM and -1.1%.
`COCOc1cc(C)nc(C(=O)Nc2nc(C)cs2)c1`: the IC50 in [6] was 103 nM. Also, the Efficacy in [11] is 1.9%.
The like results for `Cc1cc(O[C@H]2CCOC2)cc(C(=O)Nc2ccccn2)n1` were, in that order, 194 nM and 1.3%.
With `Cc1cc(O[C@@H]2CCOC2)cc(C(=O)Nc2nc(C)cs2)n1`, the Fu in [1] stood at 0.08. The molecule further gave a clearance in [2] of 34 mL/min/kg. In addition, the INH in [3] is 30 µM; in [4], 0.3 µM; in [7], more than 30 µM; in series [10], more than 30 µM. Besides, the half-life in series [5] worked out at 63 min. In addition, the IC50 in [6] amounted to 28 nM. Further, the Drug metabolism entry in series [13], in series [14] and in [15] was “Metabolite_Detected” in each case. In [8], the Vd came out at 2.7 L/kg. For the same molecule, the fraction unbound in [9] was found to be 0.11. Also, the Efficacy in series [11] was determined as 1.3%.
Consider `Cc1cc(OC2CCC2)cc(C(=O)Nc2nc(C)cs2)n1`, for which the IC50 in series [6] stood at 58 nM. Further, the Efficacy in [11] worked out at 1.5%.
The like results for `Cc1cc(O[C@H]2CCOC2)cc(C(=O)Nc2ccc(F)cn2)n1` were, in that order, 657 nM and 1%.
On to `Cc1cc(OCC2CCO2)cc(C(=O)Nc2nc(C)cs2)n1` (stereo unspecified), for which, in [6], the IC50 was determined as 399 nM. Besides, the Efficacy in series [11] worked out at 1.2%.
The like results for `Cc1cc(OC2CCOCC2)cc(C(=O)Nc2ccccn2)n1` were, in that order, 1560 nM and 0.9%.

(Values after ChEMBL document CHEMBL4308865, “Discovery of 4-alkoxy-6-methylpicolinamide negative allosteric modulators of metabotropic glutamate receptor subtype 5” (Bioorg Med Chem Lett, 2019).)
